Experimental data: patent US9796711B2, “Substituted pyrazolo[3,4-b]pyridin-6-carboxylic acids and method of use” (AbbVie S.àr.l., priority 2015, dated 2017)

Tests used:
ΔF508-CFTR [1] = target: T1, ΔF508-CFTR (Homo sapiens, UniProt P13569, DEL508-508); assay: CFTR cell surface levels using HRP-tagged ΔF508-CFTR expressing CFBE cells, in the presence of a co-corrector; assay type: cell-based; conditions: HRP-tagged ΔF508-CFTR expressing CFBE cells, in the presence of 3 μM co-corrector; for EC50: read-out: EC50
T1 construct: host or cells: CFBE41o-, doxycycline-inducible
T1 sequence (P13569 with tags, fused parts or gaps DEL508-508): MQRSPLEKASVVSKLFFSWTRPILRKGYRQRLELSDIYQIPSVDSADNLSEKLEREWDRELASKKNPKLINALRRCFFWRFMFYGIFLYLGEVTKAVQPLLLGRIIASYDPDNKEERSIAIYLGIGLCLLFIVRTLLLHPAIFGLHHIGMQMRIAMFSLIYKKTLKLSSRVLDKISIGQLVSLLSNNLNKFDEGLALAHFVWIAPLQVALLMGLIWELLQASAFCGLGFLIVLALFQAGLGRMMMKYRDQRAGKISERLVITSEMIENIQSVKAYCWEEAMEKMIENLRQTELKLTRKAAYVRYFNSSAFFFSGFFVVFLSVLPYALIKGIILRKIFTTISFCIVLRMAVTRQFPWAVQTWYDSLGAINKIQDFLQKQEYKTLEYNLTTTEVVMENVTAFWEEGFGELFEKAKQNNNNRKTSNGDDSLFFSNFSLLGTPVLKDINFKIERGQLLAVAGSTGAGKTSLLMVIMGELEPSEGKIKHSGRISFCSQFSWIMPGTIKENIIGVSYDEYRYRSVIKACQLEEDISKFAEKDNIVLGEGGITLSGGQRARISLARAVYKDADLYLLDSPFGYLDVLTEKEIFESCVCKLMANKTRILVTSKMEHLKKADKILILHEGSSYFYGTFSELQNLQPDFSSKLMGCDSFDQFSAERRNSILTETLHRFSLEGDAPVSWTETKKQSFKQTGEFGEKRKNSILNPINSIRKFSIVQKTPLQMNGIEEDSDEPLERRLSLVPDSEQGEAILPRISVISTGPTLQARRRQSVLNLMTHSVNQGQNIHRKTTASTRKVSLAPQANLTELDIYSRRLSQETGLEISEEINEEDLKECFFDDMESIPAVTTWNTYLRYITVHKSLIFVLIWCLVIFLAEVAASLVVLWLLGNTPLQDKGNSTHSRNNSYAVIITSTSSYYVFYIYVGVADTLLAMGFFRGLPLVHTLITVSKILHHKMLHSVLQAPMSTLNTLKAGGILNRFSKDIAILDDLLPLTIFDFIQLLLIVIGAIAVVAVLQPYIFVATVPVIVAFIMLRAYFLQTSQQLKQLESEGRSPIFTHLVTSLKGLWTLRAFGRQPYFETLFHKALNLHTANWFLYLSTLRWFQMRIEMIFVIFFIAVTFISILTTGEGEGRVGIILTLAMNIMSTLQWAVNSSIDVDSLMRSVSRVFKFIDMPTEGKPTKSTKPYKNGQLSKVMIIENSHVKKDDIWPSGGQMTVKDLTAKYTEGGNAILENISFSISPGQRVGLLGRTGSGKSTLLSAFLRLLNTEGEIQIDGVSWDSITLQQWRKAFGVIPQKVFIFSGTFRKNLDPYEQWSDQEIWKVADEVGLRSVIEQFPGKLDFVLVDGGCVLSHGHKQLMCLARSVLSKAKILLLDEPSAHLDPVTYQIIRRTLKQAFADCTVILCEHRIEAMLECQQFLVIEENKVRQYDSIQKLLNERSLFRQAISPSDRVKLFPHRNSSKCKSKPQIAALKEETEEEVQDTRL
Summary of the method: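 Cells were seeded with 0.5 μg/mL doxycycline and held 68 h at 37 °C. Test compounds plus 3 μM co-corrector (final 0.1% DMSO) were then added for 20 h at 33 °C. Washed cells received HRP substrate, and luminescence was normalized between DMSO and 3 μM co-corrector controls.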

ΔF508-CFTR [2] = target: T1, ΔF508-CFTR; assay: CFTR cell surface levels using HRP-tagged ΔF508-CFTR expressing CFBE cells, intrinsic corrector capacity; assay type: cell-based; conditions: for EC50: read-out: EC50
Summary of the method: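 Here the cells express ΔF508-CFTR with horseradish peroxidase inserted in extracellular loop 4, so only rescued channel at the surface gives luminescent signal. Compounds act on their own, 20 h at the reduced temperature of 33 °C; values are percent activity relative to DMSO and a 3 μM corrector.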

[3] = HRP-tagged ΔF508-CFTR CFBE41o- cells, compounds alone (intrinsic corrector capacity), 20 hours at 33° C., positive control 3 μM corrector
[4] = HRP-tagged ΔF508-CFTR CFBE41o- cells, compounds alone (intrinsic corrector capacity), 20 hours at 33° C.
[5] = HRP-tagged ΔF508-CFTR expressing CFBE cells, intrinsic corrector capacity (no co-corrector), 33° C., 20 hours

| SMILES | % Activation (ΔF508-CFTR [1]) | EC50 (ΔF508-CFTR [1]) | % Activation (ΔF508-CFTR [2]; [3]) | EC50 (ΔF508-CFTR [2]; [4]) | % Activation (ΔF508-CFTR [2]; [5]) | EC50 (ΔF508-CFTR [2]; [5]) |
| --- | --- | --- | --- | --- | --- | --- |
| Cc1nn(-c2ccccc2)c2nc(C(=O)O)cc(-c3ccc(N4CC5CCC(C4)O5)cc3)c12 [compound 134, 3-methyl-4-[4-(8-oxa-3-azabicyclo[3.2.1]octan-3-yl)phenyl]-1-phenyl-1H-pyrazolo[3,4-b]pyridine-6-carboxylic acid] | 362.2% | 556 nM | 153.25% | 982 nM | – | – |
| CCC1(COc2cc(C(=O)O)nc3c2c(C2CCC2)nn3-c2ccccc2)COCOC1 [compound 620, 3-cyclobutyl-4-[(5-ethyl-1,3-dioxan-5-yl)methoxy]-1-phenyl-1H-pyrazolo[3,4-b]pyridine-6-carboxylic acid] | 323.25% | 170 nM | – | – | 147.4% | 250 nM |
| O=C(O)c1cc(N2CC3(CCOCC3)C2)c2c(C3CCC3)nn(-c3ccccc3)c2n1 [compound 425, 3-cyclobutyl-4-(7-oxa-2-azaspiro[3.5]nonan-2-yl)-1-phenyl-1H-pyrazolo[3,4-b]pyridine-6-carboxylic acid] | 262.45% | 349 nM | – | – | 123.35% | 990 nM |
| CC(C)c1nn(C2CCCCC2)c2nc(C(=O)O)cc(-c3ccc(N4CCOC(C)(C)C4)nc3)c12 [compound 197, 1-cyclohexyl-4-[6-(2,2-dimethylmorpholin-4-yl)pyridin-3-yl]-3-(propan-2-yl)-1H-pyrazolo[3,4-b]pyridine-6-carboxylic acid] | 445.2% | 432 nM | 219.25% | 644 nM | – | – |
| Cc1cccc(-n2nc(C(C)C)c3c(N4CCC5(CCCCC5)CC4)cc(C(=O)O)nc32)c1 [compound 360, 4-(3-azaspiro[5.5]undecan-3-yl)-1-(3-methylphenyl)-3-(propan-2-yl)-1H-pyrazolo[3,4-b]pyridine-6-carboxylic acid] | 293% | 1030 nM | 96.335% | 1170 nM | – | – |
| CC(C)c1nn(-c2ccc(F)cc2)c2nc(C(=O)O)cc(N3CCC[C@@H](O)C3)c12 [compound 783, 1-(4-fluorophenyl)-4-[(3R)-3-hydroxypiperidin-1-yl]-3-(propan-2-yl)-1H-pyrazolo[3,4-b]pyridine-6-carboxylic acid] | 283.6% | 1670 nM | – | – | 95.05% | 1670 nM |
| CC(C)N1CCN(C2CCN(c3cc(C(=O)O)nc4c3c(C3CCC3)nn4C3CCCCC3)CC2)CC1 [compound 880, 3-cyclobutyl-1-cyclohexyl-4-{4-[4-(propan-2-yl)piperazin-1-yl]piperidin-1-yl}-1H-pyrazolo[3,4-b]pyridine-6-carboxylic acid] | 446.95% | 693 nM | – | – | 259.5% | 169 nM |
| CC(C)c1nn(-c2ccc(F)cc2)c2nc(C(=O)O)cc(N3CCC(C4CCN(C)CC4)CC3)c12 [compound 661, 1-(4-fluorophenyl)-4-(1′-methyl [4,4′-bipiperidin]-1-yl)-3-(propan-2-yl)-1H-pyrazolo[3,4-b]pyridine-6-carboxylic acid] | 522.3% | 227 nM | – | – | 315% | 565 nM |
| CC(C)c1nn(C2CCCCC2)c2nc(C(=O)O)cc(-c3cccn3C)c12 [compound 362, 1-cyclohexyl-4-(1-methyl-1H-pyrrol-2-yl)-3-(propan-2-yl)-1H-pyrazolo[3,4-b]pyridine-6-carboxylic acid] | 170.85% | 1800 nM | 44.405% | 2030 nM | – | – |
| CCN(CC)CCN1CCN(c2cc(C(=O)O)nc3c2c(C(C)C)nn3-c2ccc(F)cc2)CC1 [compound 800, 4-[4-[2-(diethylamino)ethyl]piperazin-1-yl}-1-(4-fluorophenyl)-3-(propan-2-yl)-1H-pyrazolo[3,4-b]pyridine-6-carboxylic acid] | 214.8% | 1490 nM | – | – | 45.22% | 1670 nM |
